Each structure is given as a SMILES string.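 Dose response: 5 concentrations. Exposure: 48 h. Format: 96-well plates. Endpoint: linear interpolation; highest concentration if not reached. GI50 marks 50% less growth. TGI: total growth inhibition.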

In the first test the test system is MDA-MB-231 breast. The experiment in a line: NCI anticancer screen, dose series, 48 h.
For `COC(=O)[C@H](Cc1ccccc1)NC(=O)N(CCC#N)CCN(C(=O)N[C@@H](Cc1ccccc1)C(=O)OC)c1ccccc1`, the TGI is 71 µM.
On the same count and under the same terms, the same measure for `C[C@H]1OC(=O)[C@@H]2N=NN(Cc3ccccc3)[C@H]12`: above 100 µM; for `CN1N=C(c2ccncc2)OC1c1ccccc1F` (stereo not drawn): above 100 µM; for `O=C(/C=C/c1ccc2c(c1)OCO2)Cc1nc2ccccc2[nH]c1=O`: 41.7 µM.
`COc1ccc(-n2nc(C)c3c(Nc4ccc(NC(=O)Nc5ccc(Cl)c(C(F)(F)F)c5)cc4)ncnc32)cc1`: the GI50 was 1.47 µM and the TGI worked out at 3.32 µM.
In turn, `O=[N+]([O-])/C(Cl)=C(\NCCN/C(C(Cl)=C(Cl)Cl)=C(/Cl)[N+](=O)[O-])C(Cl)=C(Cl)Cl` registered a TGI above 100 µM.
Still for that read-out and setting: for `S=C1NC2=C(CSC/C2=C\c2ccccc2)C(c2ccccc2)N1` (stereo not drawn) the value was above 100 µM.
As to `CCN1C(=O)C(=C/C=C/c2ccc(N(CC)CC)cc2)C(=O)N(CC)C1=S`, the TGI is above 100 µM.
`C/C(=C\CO)CC/C=C(\C)CNc1ccc([N+](=O)[O-])cc1` showed a TGI above 100 µM.
`CCN(CCCl)c1cc(CN(C)C)cc(NC(=O)c2ccc(C(=O)Nc3cccc(CN(C)C)c3)cc2)c1` registered a TGI above 100 µM.

For a further test, the system named is MDA-N. The experiment in a line: NCI anticancer screen, dose series, 48 h.
For the compound `CCOP(=O)(OCC)OC1CC(n2cc(C)c(=O)n(C)c2=O)OC1CO[Si](C)(C)C(C)(C)C` (stereo not drawn), the TGI was above 100 µM.
In turn, `COc1cccc2c1OCC1Cc3ccccc3OC21` (stereo not drawn) showed a TGI of 64.8 µM.
As to `Cc1cccc(/C(Br)=C2/OC(=O)c3ccccc32)c1`, the TGI was above 100 µM.
Same read-out and setting: for `CC#CC(O)(C(=O)OC1CC(C)N(C)C(C)(C)C1)C1CCCC1` (stereo not drawn) the value was above 100 µM; for `COc1cc(/C=C2\CCC(C)/C(=C\c3cc(OC)c(OC)c(OC)c3)C2=O)cc(OC)c1OC` (stereo not drawn), 16.1 µM.
Same read-out and setting: for `COC(=O)[C@H](Cc1ccccc1)NC(=O)N(CCC#N)CCN(C(=O)N[C@@H](Cc1ccccc1)C(=O)OC)c1ccccc1` the value was 33.8 µM.
`C[C@H]1OC(=O)[C@@H]2N=NN(Cc3ccccc3)[C@H]12` returned a TGI above 100 µM.
Still for that read-out and setting: the same measure for `CN1N=C(c2ccncc2)OC1c1ccccc1F` (stereo not drawn): above 100 µM; for `O=C(/C=C/c1ccc2c(c1)OCO2)Cc1nc2ccccc2[nH]c1=O`: above 100 µM; for `O=[N+]([O-])/C(Cl)=C(\NCCN/C(C(Cl)=C(Cl)Cl)=C(/Cl)[N+](=O)[O-])C(Cl)=C(Cl)Cl`: above 100 µM.
As to `S=C1NC2=C(CSC/C2=C\c2ccccc2)C(c2ccccc2)N1` (stereo not drawn), the TGI was above 100 µM.
Compound `CCN1C(=O)C(=C/C=C/c2ccc(N(CC)CC)cc2)C(=O)N(CC)C1=S` gave a TGI above 100 µM.
Still for that read-out and setting: the same measure for `CCN(CCCl)c1cc(CN(C)C)cc(NC(=O)c2ccc(C(=O)Nc3cccc(CN(C)C)c3)cc2)c1`: 0.685 µM.

Another test concerns NCI-H460 lung. The experiment in a line: NCI anticancer screen, dose series, 48 h.
Consider `CCOP(=O)(OCC)OC1CC(n2cc(C)c(=O)n(C)c2=O)OC1CO[Si](C)(C)C(C)(C)C` (stereo not drawn), for which the TGI was above 100 µM.
As to `N#C/C(=C1\SC(N=Nc2ccc(Cl)cc2)C(=O)N1c1ccccc1)c1nc2ccccc2[nH]1` (stereo not drawn), the TGI is above 100 µM.
On the same count and under the same terms, the same measure for `CC(C)C(N)C(=O)NC(CCC(=O)NCCCCC(N)C(=O)NCCCNc1ccc([N+](=O)[O-])c2[nH]c3ccccc3c(=O)c12)C(N)=O` (stereo not drawn): above 100 µM; for `Cc1cccc(/C(Br)=C2/OC(=O)c3ccccc32)c1`: above 100 µM; for `Nc1ccc(-c2nn3c(COc4ccc(Cl)cc4)nnc3s2)cc1`: above 100 µM.
On the same count and under the same terms, the same measure for `C(=C\c1ccccc1)/COc1ccccc1C(N1CCOCC1)n1nc2ccccc2n1` (stereo not drawn): above 51.3 µM; for `c1ccc2[nH]c(CNc3ccc(C4C[Se]N=N4)cc3)nc2c1` (stereo not drawn): above 100 µM.
Compound `C[C@H]1OC(=O)[C@@H]2N=NN(Cc3ccccc3)[C@H]12` gave a TGI above 100 µM.
On the same count and under the same terms, the same measure for `CN1N=C(c2ccncc2)OC1c1ccccc1F` (stereo not drawn): above 100 µM.
As to `O=C(/C=C/c1ccc2c(c1)OCO2)Cc1nc2ccccc2[nH]c1=O`, the TGI is above 100 µM.
As to `O=S1(=O)c2cnccc2NC(=NCc2ccccc2)N1c1ccccc1`, the TGI was above 100 µM.
On the same count and under the same terms, the same measure for `Cc1ccc2oc(=O)c(-c3ccccc3)nc2c1`: above 100 µM.
Take `COc1ccc(-n2nc(C)c3c(Nc4ccc(NC(=O)Nc5ccc(Cl)c(C(F)(F)F)c5)cc4)ncnc32)cc1`: the GI50 is 2.17 µM and the TGI stood at 5.07 µM.
Turning to `O=[N+]([O-])/C(Cl)=C(\NCCN/C(C(Cl)=C(Cl)Cl)=C(/Cl)[N+](=O)[O-])C(Cl)=C(Cl)Cl`, the TGI is above 100 µM.
Still for that read-out and setting: the same measure for `S=C1NC2=C(CSC/C2=C\c2ccccc2)C(c2ccccc2)N1` (stereo not drawn): above 100 µM; for `COc1ccc(/C=N/n2c(C)nc3c(sc(=S)n3-c3ccccc3)c2=O)cc1`: above 100 µM; for `CCN1C(=O)C(=C/C=C/c2ccc(N(CC)CC)cc2)C(=O)N(CC)C1=S`: above 100 µM.
The same measure, in the same setting: for `CSc1nc2c(ncn2C2OC(CO)C(O)C(O)C2O)c(=O)[nH]1` (stereo not drawn) the value was above 100 µM; for `Nc1ccccc1C(=O)C(Br)C(Br)c1ccc2c(c1)OCO2` (stereo not drawn), 39.2 µM; for `C/C(=C\CO)CC/C=C(\C)CNc1ccc([N+](=O)[O-])cc1`, above 100 µM.
Compound `CCCCCCCCCCCC1CC(=O)NCCCN(C)CCCCN(C)CCCN1C` (stereo not drawn) displayed a TGI of 2.66 µM.
On the same count and under the same terms, for `COc1cc(C2c3cc4c(cc3[C@@H](Nc3ccc5c(c3)OCO5)C3COC(=O)[C@H]23)OCO4)cc(OC)c1O` (stereo partly drawn) the value was 1.57 µM; for `CCN(CCCl)c1cc(CN(C)C)cc(NC(=O)c2ccc(C(=O)Nc3cccc(CN(C)C)c3)cc2)c1`, 10.6 µM.

Another test deals with OVCAR-8 ovarian. The test is described as follows: NCI anticancer screen, dose series, 48 h.
In the case of `CCOP(=O)(OCC)OC1CC(n2cc(C)c(=O)n(C)c2=O)OC1CO[Si](C)(C)C(C)(C)C` (stereo not drawn), the TGI is above 100 µM.
Regarding `N#C/C(=C1\SC(N=Nc2ccc(Cl)cc2)C(=O)N1c1ccccc1)c1nc2ccccc2[nH]1` (stereo not drawn), the TGI is above 100 µM.
`O=C(NN1C(=O)CSC1c1cccc(F)c1)c1ccncc1` (stereo not drawn) displayed a TGI above 100 µM.
On to `COc1cccc2c1OCC1Cc3ccccc3OC21` (stereo not drawn), for which the TGI was above 100 µM.
On the same count and under the same terms, for `CC(C)C(N)C(=O)NC(CCC(=O)NCCCCC(N)C(=O)NCCCNc1ccc([N+](=O)[O-])c2[nH]c3ccccc3c(=O)c12)C(N)=O` (stereo not drawn) the value was above 100 µM.
On the same count and under the same terms, for `Cc1cccc(/C(Br)=C2/OC(=O)c3ccccc32)c1` the value was above 100 µM; for `CC#CC(O)(C(=O)OC1CC(C)N(C)C(C)(C)C1)C1CCCC1` (stereo not drawn), above 100 µM.
In turn, `Nc1ccc(-c2nn3c(COc4ccc(Cl)cc4)nnc3s2)cc1` came in with a TGI above 100 µM.
With `C(=C\c1ccccc1)/COc1ccccc1C(N1CCOCC1)n1nc2ccccc2n1` (stereo not drawn), the TGI was determined as 14 µM.
On to `c1ccc2[nH]c(CNc3ccc(C4C[Se]N=N4)cc3)nc2c1` (stereo not drawn), for which the TGI was above 100 µM.
Compound `COc1cc(/C=C2\CCC(C)/C(=C\c3cc(OC)c(OC)c(OC)c3)C2=O)cc(OC)c1OC` (stereo not drawn) returned a TGI of 9.52 µM.
The same measure, in the same setting: the same measure for `COC(=O)[C@H](Cc1ccccc1)NC(=O)N(CCC#N)CCN(C(=O)N[C@@H](Cc1ccccc1)C(=O)OC)c1ccccc1`: above 100 µM; for `C[C@H]1OC(=O)[C@@H]2N=NN(Cc3ccccc3)[C@H]12`: above 100 µM; for `CN1N=C(c2ccncc2)OC1c1ccccc1F` (stereo not drawn): above 100 µM.
`O=C(/C=C/c1ccc2c(c1)OCO2)Cc1nc2ccccc2[nH]c1=O` returned a TGI above 100 µM.

The values above are taken from PubChem BioAssay (NCI).
